Species: Rattus norvegicus
Experiment: Open TG-GATES - Regimen: Daily Repeat
Type: toxicity, organism-based, Sprague-Dawley
Set-up: regimen Daily Repeat, gender Male, age 6 weeks
Details: in vivo, po, route gavage; for TG / TP / gamma-GTP / ALP / ALT / AST / BUN / CRE / Ca / Cl / DBIL / GLC / IP / K / LDH / Na / PL / RALB / TBIL / TC: tissue Plasma; for APTT / Bas / Eos / Fbg / Ht / Lym / MCH / MCHC / MCV / Mono / PT / Plat / RBC / Ret / WBC / Hb / Neu: tissue Blood; for KIDNEY_L / KIDNEY_R / KIDNEY_TOTAL: tissue Kidney; for LIVER: tissue Liver
[1] = 0 mg/kg, […], dose level Control, time 28 day
[2] = 100 mg/kg, 72 h, dose level Low, time 3 day
[3] = 100 mg/kg, […], dose level Low, time 7 day
[4] = 100 mg/kg, […], dose level Low, time 14 day
[5] = 100 mg/kg, […], dose level Low, time 28 day

## CCOc1ccc(NC(C)=O)cc1 [PHENACETIN]
[1]
  TG: 162.4 mg/dL
  TP: 6.4 g/dL
  gamma-GTP: 1 IU/L
[2]
  TERMINAL_BW: 232.8 g
  APTT: 20.2 s
  Bas: 0%
  Eos: 1.2%
  Fbg: 290.4 mg/dL
  Ht: 41.7%
  Lym: 76.8%
  MCH: 20.4 pg
  MCHC: 33%
  MCV: 61.8 fL
  Mono: 2.6%
  PT: 13.4 s
  Plat: 116.5 x10_4/uL
  RBC: 676.4 x10_4/ul
  Ret: 5.2%
  WBC: 101.2 x10_2/uL
  KIDNEY_L: 1 g
  KIDNEY_R: 1 g
  KIDNEY_TOTAL: 2.1 g
  LIVER: 10.9 g
  ALP: 1708.4 IU/L
  ALT: 40 IU/L
  AST: 70.4 IU/L
  BUN: 13 mg/dL
  CRE: 0.2 mg/dL
  Ca: 11.2 mg/dL
  Cl: 105.8 meq/L
  DBIL: 0.006 mg/dL
  GLC: 172.8 mg/dL
  IP: 6.8 mg/dL
  K: 4.2 meq/L
  LDH: 148 IU/L
  Na: 143.4 meq/L
  PL: 158.8 mg/dL
  RALB: 2.7 g/dL
  TBIL: 0.04 mg/dL
  TC: 77 mg/dL
  TG: 110.6 mg/dL
  TP: 5.8 g/dL
  gamma-GTP: 1.2 IU/L
[3]
  TERMINAL_BW: 270.6 g
  APTT: 16.8 s
  Bas: 0%
  Eos: 1.2%
  Fbg: 298.2 mg/dL
  Hb: 14.1 g/dL
  Ht: 42%
  Lym: 78.2%
  MCHC: 33.7%
  MCV: 60.3 fL
  Mono: 2%
  Neu: 18%
  PT: 13.4 s
  Plat: 123.3 x10_4/uL
  RBC: 696.4 x10_4/ul
  Ret: 5.6%
  WBC: 96.3 x10_2/uL
  KIDNEY_L: 1.1 g
  KIDNEY_R: 1.1 g
  KIDNEY_TOTAL: 2.3 g
  LIVER: 12.8 g
  ALP: 1550.8 IU/L
  BUN: 15.4 mg/dL
  CRE: 0.2 mg/dL
  Ca: 11.2 mg/dL
  Cl: 104.8 meq/L
  DBIL: 0.006 mg/dL
  GLC: 186 mg/dL
  IP: 6.9 mg/dL
  K: 4.3 meq/L
  LDH: 79.4 IU/L
  Na: 143.4 meq/L
  PL: 165.2 mg/dL
  RALB: 2.7 g/dL
  TBIL: 0.044 mg/dL
  TG: 152 mg/dL
  TP: 6 g/dL
  gamma-GTP: 1 IU/L
[4]
  TERMINAL_BW: 323.2 g
  APTT: 17.8 s
  Bas: 0.4%
  Eos: 0.8%
  Fbg: 292.4 mg/dL
  Ht: 43.4%
  Lym: 79.8%
  MCH: 19.9 pg
  MCHC: 34%
  MCV: 58.5 fL
  Mono: 2%
  Neu: 16.6%
  PT: 13.3 s
  Plat: 118.2 x10_4/uL
  RBC: 740.8 x10_4/ul
  Ret: 4.1%
  WBC: 112.5 x10_2/uL
  KIDNEY_L: 1.2 g
  KIDNEY_R: 1.2 g
  KIDNEY_TOTAL: 2.5 g
  LIVER: 13.9 g
  ALP: 1582 IU/L
  ALT: 39.4 IU/L
  AST: 66.4 IU/L
  CRE: 0.2 mg/dL
  Ca: 10.9 mg/dL
  Cl: 106 meq/L
  DBIL: 0.022 mg/dL
  GLC: 184.2 mg/dL
  IP: 6.7 mg/dL
  K: 4.2 meq/L
  LDH: 118.6 IU/L
  Na: 143.4 meq/L
  PL: 162 mg/dL
  RALB: 2.7 g/dL
  TBIL: 0.062 mg/dL
  TC: 73.8 mg/dL
  TG: 157 mg/dL
  TP: 6 g/dL
  gamma-GTP: 1.2 IU/L
[5]
  TERMINAL_BW: 411.2 g
  APTT: 18.4 s
  Bas: 0%
  Eos: 1.6%
  Fbg: 278.8 mg/dL
  Hb: 15 g/dL
  Ht: 43.8%
  MCH: 19 pg
  MCHC: 34.3%
  MCV: 55.3 fL
  Mono: 2.4%
  Plat: 122.4 x10_4/uL
  RBC: 792.8 x10_4/ul
  Ret: 3%
  WBC: 92.4 x10_2/uL
  KIDNEY_L: 1.4 g
  KIDNEY_R: 1.4 g
  KIDNEY_TOTAL: 2.8 g
  LIVER: 16.4 g
  ALP: 1231.2 IU/L
  ALT: 35.8 IU/L
  AST: 60.8 IU/L
  BUN: 15.6 mg/dL
  CRE: 0.3 mg/dL
  Ca: 10.8 mg/dL
  Cl: 105.6 meq/L
  DBIL: 0.02 mg/dL
  GLC: 191.8 mg/dL
  IP: 6.1 mg/dL
  K: 3.7 meq/L
  LDH: 66.6 IU/L
  Na: 145.2 meq/L
  PL: 148 mg/dL
  RALB: 2.9 g/dL
  TBIL: 0.052 mg/dL
  TC: 63.8 mg/dL
  TG: 156 mg/dL
